Test results as given in patent US12612410B2 (CHILDREN'S HOSPITAL MEDICAL CENTER, priority 2020, dated 2026).

Biological target: T1, FLT3 (Homo sapiens, UniProt P36888)
T1 sequence (P36888 27-993): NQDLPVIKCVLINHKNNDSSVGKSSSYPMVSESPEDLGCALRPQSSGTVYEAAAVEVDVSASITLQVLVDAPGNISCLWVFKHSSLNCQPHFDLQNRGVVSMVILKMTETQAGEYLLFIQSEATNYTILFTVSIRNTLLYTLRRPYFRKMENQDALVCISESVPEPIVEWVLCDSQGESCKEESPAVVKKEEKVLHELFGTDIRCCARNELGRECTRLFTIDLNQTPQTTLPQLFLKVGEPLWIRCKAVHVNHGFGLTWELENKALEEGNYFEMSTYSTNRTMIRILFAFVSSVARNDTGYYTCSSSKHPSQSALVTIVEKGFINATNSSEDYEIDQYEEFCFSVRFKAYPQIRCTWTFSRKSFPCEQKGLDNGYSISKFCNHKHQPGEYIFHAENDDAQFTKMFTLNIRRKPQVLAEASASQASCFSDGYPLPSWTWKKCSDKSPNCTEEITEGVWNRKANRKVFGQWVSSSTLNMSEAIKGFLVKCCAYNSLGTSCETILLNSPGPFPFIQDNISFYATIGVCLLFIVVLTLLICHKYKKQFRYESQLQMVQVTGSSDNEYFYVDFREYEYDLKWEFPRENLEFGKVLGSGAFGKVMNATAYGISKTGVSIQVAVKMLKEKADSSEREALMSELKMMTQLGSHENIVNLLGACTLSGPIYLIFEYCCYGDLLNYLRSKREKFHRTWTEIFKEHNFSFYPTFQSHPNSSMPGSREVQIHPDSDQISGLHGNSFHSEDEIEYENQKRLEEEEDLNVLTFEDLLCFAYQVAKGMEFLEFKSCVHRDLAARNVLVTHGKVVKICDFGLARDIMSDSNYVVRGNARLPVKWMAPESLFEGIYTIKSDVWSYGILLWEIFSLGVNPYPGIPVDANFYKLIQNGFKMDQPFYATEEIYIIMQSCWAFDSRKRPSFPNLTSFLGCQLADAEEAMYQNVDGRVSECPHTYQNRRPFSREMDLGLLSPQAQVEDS
Test: Reaction Biology NanoBRET target engagement assay, FLT3
Format: cell-based
Conditions: transfected HEK-293 cells
Excerpt: The NanoBRET assay measures kinase engagement in real time in the context of the intact cell. Unlike the previously described biochemical kinase assay methodologies in Examples 26-27, the NanoBRET assay measures the binding and activity characteristics under equilibrium conditions using full-length kinases in the presence of cellular concentrations of ATP in live, uncompromised cells. As such, the assay provides a more relevant assessment of kinase potency and selectivity that would be expected to be observed in the native cellular environment, where potency is often considerably lower than that observed in the isolated biochemical assays (Vasta, J. D. et al., (2018) Cell Chem. Biol. 25, 206-214). The assay uses a Kinase-NanoLuc® fusion vector expressing a kinase protein to which a luciferase tag has been added, a cell-permeant fluorescent NanoBRET™ tracer, a NanoLuc® substrate, and an extracellular NanoLuc® inhibitor. Upon expression of the luciferase-tagged kinase, cells will produce a strong BRET signal only in the presence of the NanoBRET™ tracer. The extracellular NanoLuc® inhibitor ensures that the BRET signal observed emanates only from live cells. Because the BRET signal has tight distance constraints, addition of the test compound will decrease the BRET signal if the compound competes with the NanoBRET™ tracer for binding to the kinase domain. Under the appropriate tracer conditions established by the manufacturer, quantitative intracellular affinity and relative potency can then be determined using Mass Action model equations.
HEK-293 cells were purchased from ATCC. FuGENEHD Transfection Reagent, Kinase-NanoLucfusion plasmids, Transfection Carrier DNA, NanoBRETTracers and dilution buffer, NanoBRETNano-Glo Substrate, Extracellular NanoLucInhibitor were obtained from Promega.
Assays were conducted following Promega assay protocol with some modifications. HEK-293 Cells were transiently transfected with Kinase-NanoLucFusion Vector DNA by FuGENEHD Transfection Reagent. Testing compounds were delivered into 384 well assay plate by Echo 550 (Labcytelnc, Sunnyvale, CA). Transfected cells were harvested and mixed with NanoBRETTracer Reagent and dispensed into 384 well plates and incubated at 37° C. in 5% CO2 cell culture incubator for 1 hour. The NanoBRETNano-Glo Substrate plus Extracellular NanoLucInhibitor Solution were added into the wells of the assay plate and incubated for 2-3 minutes at room temperature. The donor emission wavelength (460 nm) and acceptor emission wavelength (600 nm) were measured in the EnVisionplate reader. The BRET Ratios were calculated. BRET Ratio=[(Acceptor sample÷Donor sample)−(Acceptor no-tracer control÷Donor no-tracer control)]. The IC50 values of compounds were calculated with Prism GraphPad program.
NanoBRET™ Target Engagement Assay Protocol
1. Transient Transfection of HEK-293 Cells NanoLuc® Fusion Vector DNA
• 1). Cultivate HEK-293 cells (70-80% confluence) appropriately prior to assay. Trypsinize and collect HEK-293 cells. • 2). Prepare lipid: DNA complexes as follows: • a. Prepare a […] solution of DNA in Opti-MEM without serum that consists of the following ratios of carrier DNA and DNA encoding NanoLuc® fusion. 9.0 µg/mL of Transfection Carrier DNA, […] of NanoLuc fusion vector DNA and 1 mL of Opti-MEM without phenol red. Mix thoroughly. • b. Add 30 l of FuGENE HD Transfection Reagent into each milliliter of DNA mixture to form lipid: DNA complex. • c. Mix by inversion 10 times. • d. Incubate at ambient temperature for 20 minutes to allow complexes to form. • 3). In a sterile, conical tube, mix 1 part of lipid: DNA complex with 20 parts of HEK-293 cells in suspension. Mix gently by inversion 5 times. • 4). Dispense cells+lipid: DNA complex into a sterile tissue culture dish and incubate for 22-24 hours. 2. Addition of Test Compounds (dry plate shooting)
Each test compound is delivered from the compound source plate to the wells of 384-well white NBS plate by Echo 550.
3. […]

SMILES | IC50 [nM]
CC(O)(c1cn2c(-c3cccc(N[C@H]4CNCC[C@@H]4F)n3)cnc2cn1)C(F)(F)F (single isomer, unassigned) [Compound 80] | 94
CC(O)(c1cn2c(-c3cccc(N[C@H]4CNC[C@@H]4F)n3)cnc2cn1)C(F)(F)F (single isomer, unassigned) [Compound 78] | 40
FC(F)(F)COc1cn2c(-c3cccc(N[C@@H]4CCNC4)n3)cnc2cn1 [Compound 38, (R)-N-(pyrrolidin-3-yl)-6-(6-(2,2,2-trifluoroethoxy)imidazo[1,2-a]pyrazin-3-yl)pyridin-2-amine] | 12
CC(C)(O)c1cn2c(-c3nc(N[C@H]4CNC[C@@H]4F)c(F)cc3F)cnc2cn1 [Compound 33, 2-(3-(3,5-difluoro-6-(((3S,4S)-4-fluoropyrrolidin-3-yl)amino)pyridin-2-yl)imidazo[1,2-a]pyrazin-6-yl)propan-2-ol] | 1500
CC1(c2cn3c(-c4cccc(N[C@H]5CNC[C@@H]5F)n4)cnc3cn2)CC1 [Compound 1, N-((3S,4S)-4-fluoropyrrolidin-3-yl)-6-(6-(1-methylcyclopropyl)imidazo[1,2-a]pyrazin-3-yl)pyridin-2-amine] | 6
CC(C)(O)c1cn2c(-c3cccc(N[C@H]4CNCC[C@@H]4F)n3)cnc2cn1 [Compound 31, 2-(3-(6-(((3S,4S)-4-fluoropiperidin-3-yl)amino)pyridin-2-yl)imidazo[1,2-a]pyrazin-6-yl)propan-2-ol] | 136
CC(O)(c1cn2c(-c3cccc(N[C@H]4CNC[C@@H]4F)n3)cnc2cn1)C(F)(F)F (single isomer, unassigned) [Compound 77] | 277
FC(F)c1cn2c(-c3cccc(N[C@H]4CNC[C@@H]4F)n3)cnc2cn1 [Compound 16, 6-(6-(difluoromethyl)imidazo[1,2-a]pyrazin-3-yl)-N-((3S,4S)-4-fluoropyrrolidin-3-yl)pyridin-2-amine] | 21
Cn1cc(-c2cn3c(-c4cccc(N[C@@H]5CCCNC5)n4)cnc3cn2)cn1 [Compound 43, (R)-6-(6-(1-methyl-1H-pyrazol-4-yl)imidazo[1,2-a]pyrazin-3-yl)-N-(piperidin-3-yl)pyridin-2-amine] | 73
F[C@H]1CNC[C@@H]1Nc1cccc(-c2cnc3cnc(C4CC4)cn23)n1 [Compound 50, 6-(6-cyclopropylimidazo[1,2-a]pyrazin-3-yl)-N-((3S,4S)-4-fluoropyrrolidin-3-yl)pyridin-2-amine] | 10
FC(F)c1cn2c(-c3cccc(N[C@H]4CNCC[C@@H]4F)n3)cnc2cn1 [Compound 25, 6-(6-(difluoromethyl)imidazo[1,2-a]pyrazin-3-yl)-N-((3S,4S)-4-fluoropiperidin-3-yl)pyridin-2-amine] | 6
CC1(c2cn3c(-c4cccc(N[C@H]5CNCC56CC6)n4)cnc3cn2)CC1 [Compound 5, (R)-N-(6-(6-(1-methylcyclopropyl)imidazo[1,2-a]pyrazin-3-yl)pyridin-2-yl)-5-azaspiro[2.4]heptan-7-amine] | < 0.5
FC(F)COc1cn2c(-c3cccc(N[C@H]4CNC[C@@H]4F)n3)cnc2cn1 [Compound 58, 6-(6-(2,2-difluoroethoxy)imidazo[1,2-a]pyrazin-3-yl)-N-((3S,4S)-4-fluoropyrrolidin-3-yl)pyridin-2-amine] | 52
CC(C)(O)c1cn2c(-c3nc(N[C@@H]4CCCNC4)c(F)cc3F)cnc2cn1 [Compound 34, (R)-2-(3-(3,5-difluoro-6-(piperidin-3-ylamino)pyridin-2-yl)imidazo[1,2-a]pyrazin-6-yl)propan-2-ol] | 177
CC1(c2cn3c(-c4cccc(N[C@@H]5CCNC5)n4)cnc3cn2)CC1 [Compound 3, (R)-6-(6-(1-methylcyclopropyl)imidazo[1,2-a]pyrazin-3-yl)-N-(pyrrolidin-3-yl)pyridin-2-amine] | 3

Second part, the compound after the results:

IC50 [nM] | SMILES
0.9 | O=S1(=O)CCCN1c1cn2c(-c3cccc(N[C@H]4CNCC[C@@H]4F)n3)cnc2cn1 [Compound 97, 2-(3-(6-(((3S,4S)-4-fluoropiperidin-3-yl)amino)pyridin-2-yl)imidazo[1,2-a]pyrazin-6-yl)isothiazolidine 1,1-dioxide]
8 | CC(C)(C)c1cn2c(-c3nc(N[C@@H]4CCCNC4)c(F)cc3F)cnc2cn1 [Compound 126, (R)-6-(6-(tert-butyl)imidazo[1,2-a]pyrazin-3-yl)-3,5-difluoro-N-(piperidin-3-yl)pyridin-2-amine]
21 | O=C1CCCN1c1cn2c(-c3cccc(N[C@H]4CNC[C@@H]4F)n3)cnc2cn1 [Compound 121, 1-(3-(6-(((3S,4S)-4-fluoropyrrolidin-3-yl)amino)pyridin-2-yl)imidazo[1,2-a]pyrazin-6-yl)pyrrolidin-2-one]
16 | O=C1CCCN1c1cn2c(-c3cccc(N[C@H]4CNCC[C@@H]4F)n3)cnc2cn1 [Compound 119, 1-(3-(6-(((3S,4S)-4-fluoropiperidin-3-yl)amino)pyridin-2-yl)imidazo[1,2-a]pyrazin-6-yl)pyrrolidin-2-one]
12 | CC(C)(C)c1cn2c(-c3cccc(N[C@@H]4CCCNC4)n3)cnc2cn1 [Compound 129, (R)-6-(6-(tert-butyl)imidazo[1,2-a]pyrazin-3-yl)-N-(piperidin-3-yl)pyridin-2-amine]
31 | O=C1CCCN1c1cn2c(-c3nc(N[C@@H]4CCCNC4)c(F)cc3F)cnc2cn1 [Compound 108, (R)-1-(3-(3,5-difluoro-6-(piperidin-3-ylamino)pyridin-2-yl)imidazo[1,2-a]pyrazin-6-yl)pyrrolidin-2-one]
937 | CC(C)(C)c1cn2c(-c3nc(N[C@H]4CNC[C@@H]4F)c(F)cc3F)cnc2cn1 [Compound 125]
16 | CC(C)(C)c1cn2c(-c3nc(N[C@H]4CNCC[C@@H]4F)c(F)cc3F)cnc2cn1 [Compound 127, 6-(6-(tert-butyl)imidazo[1,2-a]pyrazin-3-yl)-3,5-difluoro-N-((3S,4S)-4-fluoropiperidin-3-yl)pyridin-2-amine]
40 | CC(O)(c1cn2c(-c3cccc(N[C@H]4CNCC[C@@H]4F)n3)cnc2cn1)C(F)(F)F (single isomer, unassigned) [Compound 82]
